Data: patent publication US20250019520A1, “RELIEF PRECURSORS WITH ENHANCED STABILITY” (XSYS Germany GmbH, priority 2023, published 2025)

Assays:
[1] = Kneading trials at 180° C., onset of crosslinking seen as increase in torque; type: physicochemical; conditions: kneading at 180° C. for 60 min, SBS binder plus stabilizer
Experimental: Kneading trials were carried out using a ThermoFisher Scientifc Haake kneading device equipped with a Haake PolyLab OS RheoDrive 7 control unit, a Haake Rheomix 600 OS heating and kneading chamber with Roller Rotors R600. The torque and the sample temperature were recorded using the software PolySoft, version 2.1.0.1. For the measurement, a temperature of 180° C. was applied. The measurement was carried out for 60 min, respectively. The components were added to the kneading device as solids and were allowed to be mixed in the kneading device.
In the given sample, the amount of stabilizer was varied in the range of 0 to 1.0 parts by weight and the excess was counterbalanced by the amount of binder, respectively.
An increase in torque indicated the onset of crosslinking of the SBS-rubber due to insufficient stabilization. Without additional stabilizer, an increase in torque was observed within the first 10 min of measurement time. With BHT as stabilizer, an increase in torque was detected after 28 min of heating at 180° C. With ascorbyl palmitate, the best result was achieved, where crosslinking was observed after 50 min.

[2] = Thermal melt stability: onset time of crosslinking, SIS-rubber based formulation; type: physicochemical
Experimental: The thermal melt stability was assessed by recording the melt viscosity during heating. Crosslinking of the sample was recorded as an increase in viscosity. Oscillatory rheological measurements were carried out using a Kinexus lab+rheometer (Malvern Instruments Ltd., UK) under isothermal (T=160° C.) conditions. Data was recorded using the corresponding software rSPACE version 1.76 (Malvern Instruments Ltd., UK). As measurement geometry, parallel plates with a diameter of 2.5 cm of the upper plate were chosen. As sample, a disc of a relief precursor with a diameter of 2.5 cm was used. Prior to measurement, any foils (e.g. the cover sheet) and mask layers were removed from the relief precursor. Measurements were carried out in oscillation single frequency mode. The frequency was set to 1 Hz. The gap between the parallel plates was set constant to the respective sample thickness. Data points were recorded every 15 s. The complex shear viscosity η* was monitored over time t. The “onset time of crosslinking” was identified as “the time when the difference quotient Δη*/Δt is ≥1 Pa, with Δt=15 s”. A higher onset time indicates a higher thermal stability and stability towards mechanical stress.
In this example, another trial formulation based on a SIS tri-block copolymer was used. […]

[3] = Printing plate evaluation: halftone and tonal values at 146 lpi; conditions: difference of tonal value of 5% halftone at 146 lpi versus plate without additional stabilizer
Experimental: To obtain a cliché, the laser ablatable mask on the front side was imaged using a TfxX 20 laser (Flint Group Germany GmbH, Germany, rotational speed: 10 to 11 rounds/s, power: 35 W (100% intensity)). The relief precursor was exposed to UV light from the backside through the carrier foil for 20 to 40 s and from the front side through the mask layer for 15 min. During the exposure at room temperature (being around 18-25° C.), no active heating was present. As a result of the crosslinking reaction due to the exposure, the temperature of the plate rose to around 40° C. (machine type: Combi FIII (Flint Group Germany GmbH, Germany), UVA intensity […], UVA tube type: Philips TL 80 W/10-R). […]
In this example, the effect of the stabilizer on the tonal values of the resulting printing plates was assessed since conventional stabilizers can impact tonal values as they may hinder curing. […] The stabilizer impact on the tonal value was calculated as the difference of the tonal value of the 5% halftone at 146 lpi of a plate without any additional stabilizer compared to the respective tonal value of a plate comprising a stabilizer.

- Onset time t/min [1]: 50 min
- Effect on the onset time of crosslinking compared with an equimolar amount of BHT [2]: more than five times as high
- Stabilizer impact on tonal value [3]: 0.8%
SMILES: CCCCCCCCCCCCCCCC(=O)OC[C@H](O)[C@H]1OC(=O)C(O)=C1O [Ascorbyl palmitate]
